From PubChem BioAssay AID1035473 (Broad Institute, 2014) come the findings set out here.

The subject of the assay is A549 viability, CellTiter-Glo ATP luminescence, 72 h. Nature of the assay: A549 cell cytotoxicity, dose response, cytotoxicity control, dry powder samples (AID 1035473).

As to `Cn1c(NC(=O)c2ccccc2)nc2c3cnccc3ccc21`, the concentration at half-maximal activity (AC50) was 83.9 µM.
